Laboratory results reported in PubChem BioAssay (NCI).
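Dose response: 5 concentrations. Exposure: 48 h. Format: 96-well plates. Endpoint: linear interpolation; highest concentration if not reached. At the GI50, growth is halved. TGI marks complete inhibition of growth.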

Key:
Experiment in all cases: NCI tumour cell line growth inhibition, 48 h
SNB-75 CNS = system: SNB-75 CNS
OVCAR-8 ovarian = system: OVCAR-8 ovarian
A498 renal = system: A498 renal
RPMI-8226 leukemia = system: RPMI-8226 leukemia
EKVX NSCLC = system: EKVX NSCLC
UACC-62 melanoma = system: UACC-62 melanoma
UO-31 renal = system: UO-31 renal
RXF 393 renal = system: RXF 393 renal
T-47D breast = system: T-47D breast
A549 NSCLC = system: A549 NSCLC

Compound | GI50 (SNB-75 CNS) | TGI (SNB-75 CNS) | GI50 (OVCAR-8 ovarian) | TGI (OVCAR-8 ovarian) | GI50 (A498 renal) | TGI (A498 renal) | GI50 (RPMI-8226 leukemia) | TGI (RPMI-8226 leukemia) | GI50 (EKVX NSCLC) | TGI (EKVX NSCLC) | GI50 (UACC-62 melanoma) | TGI (UACC-62 melanoma) | GI50 (UO-31 renal) | TGI (UO-31 renal) | GI50 (RXF 393 renal) | TGI (RXF 393 renal) | GI50 (T-47D breast) | TGI (T-47D breast) | GI50 (A549 NSCLC) | TGI (A549 NSCLC)
Cc1cc(CCl)c(C)cc1CCl | 1.38 µM | 4.15 µM | 3.21 µM | 17.4 µM | 1.79 µM | 3.96 µM | 1.63 µM | 6.9 µM | 2.08 µM | 5.49 µM | 1.93 µM | 7.59 µM | 1.53 µM | 3.71 µM | 2.93 µM | 8.72 µM | 0.733 µM | 2.31 µM | 1.66 µM | 5.09 µM
COc1ccc(-c2c(C#N)c(N)nc(N3CCOCC3)c2C#N)cc1 | 13.5 µM | 60.7 µM | 26 µM | > 100 µM | 7.36 µM | 30.1 µM | 16.1 µM | 58.7 µM | 21.4 µM | > 100 µM | 14.6 µM | 74.7 µM | 13.1 µM | 49.2 µM | 16.9 µM | 47.2 µM | 0.828 µM | 6.14 µM | 29.4 µM | > 100 µM
CC(C)(C)[Si](C)(C)OC1[C@@H](CNC(N)=O)O[C@@H](n2cnc3c(NC(=O)Nc4ccccc4)ncnc32)[C@H]1O[Si](C)(C)C(C)(C)C (stereo partly drawn) | 3.73 µM | 10.9 µM | 1.77 µM | 7.32 µM | 1.56 µM | 8.04 µM | 1.12 µM | 2.63 µM | 1.94 µM | 8.02 µM | 6.19 µM | 12.6 µM | 1.92 µM | 8.29 µM | 1.95 µM | 7.02 µM | 7.56 µM | 14.2 µM | 1.98 µM | 7.82 µM
O=[N+]([O-])c1cc([As](Br)c2ccc(O)c([N+](=O)[O-])c2)ccc1O | – | 3.62 µM | – | 3.21 µM | – | 3.74 µM | – | 1.28 µM | – | 3.86 µM | – | 3 µM | – | 3.23 µM | – | 3.22 µM | – | 0.557 µM | – | 7.02 µM
CCn1cc(/C=C2\Oc3cc(OCC#N)ccc3C2=O)c2cc(OC)ccc21 | 0.527 µM | – | 0.53 µM | > 100 µM | 10.3 µM | > 100 µM | 0.214 µM | > 72.5 µM | 1.44 µM | > 100 µM | 0.171 µM | > 53.4 µM | 0.669 µM | > 100 µM | 0.152 µM | 0.614 µM | 0.961 µM | > 100 µM | 2.48 µM | > 100 µM
CN(C)N1C(=O)SCC(c2ccccc2)(c2ccccc2)C1=O | – | > 100 µM | – | > 100 µM | – | > 100 µM | – | > 100 µM | – | > 100 µM | – | > 100 µM | – | > 100 µM | – | > 100 µM | – | > 100 µM | – | > 100 µM
O=C1/C(=C\c2ccco2)Oc2ccccc21 | – | > 100 µM | – | > 100 µM | – | > 100 µM | – | > 100 µM | – | > 100 µM | – | > 100 µM | – | > 100 µM | – | > 100 µM | – | > 100 µM | – | > 100 µM
COc1cc(OCc2cccc(-c3ccccc3)c2C)cc(OC)c1CN1CCCCC1C(=O)NCCOCCOCCN (stereo not drawn) | 2.22 µM | 17.7 µM | 3.26 µM | 12.1 µM | 2.27 µM | 11.8 µM | 2.04 µM | 5 µM | 3.71 µM | 15.7 µM | 1.79 µM | 3.41 µM | 10.6 µM | 22.9 µM | 3.26 µM | 11.4 µM | 1.77 µM | 3.77 µM | 3.04 µM | 10.7 µM
Nc1nc(N)c2cc(Sc3ccc4ccccc4c3)ccc2n1 | – | 5.89 µM | – | 2.84 µM | – | 17.4 µM | – | 4.72 µM | – | 14.5 µM | – | 6.09 µM | – | 7.69 µM | – | 4.62 µM | – | 4.04 µM | – | 12 µM
COc1ccc(C2=NC(=O)NC2c2ccc(OC)cc2)cc1 (stereo not drawn) | 5.39 µM | 65 µM | 29.6 µM | > 100 µM | 4.49 µM | 29.1 µM | 7.58 µM | 50.6 µM | 13 µM | 64.6 µM | 4.15 µM | 32.7 µM | 20.7 µM | > 100 µM | 12 µM | 51.5 µM | 6.9 µM | > 100 µM | 11.8 µM | > 100 µM
CCCN(CCC)c1ccc(C=O)c(Cl)c1 | 16.5 µM | 55.8 µM | 28.4 µM | > 100 µM | 0.141 µM | 0.289 µM | 40.1 µM | > 100 µM | 21.4 µM | > 76.6 µM | 0.317 µM | 1.81 µM | 19.7 µM | > 83.8 µM | 14.2 µM | 33.6 µM | 0.375 µM | 5.1 µM | 7.66 µM | > 100 µM
Cn1cc(-c2cc(-c3cn(C)c4ccc(Cl)cc34)[nH]n2)c2cc(Cl)ccc21 | 4.25 µM | 30.6 µM | 4.03 µM | 19.8 µM | 2.44 µM | 9.79 µM | 6.79 µM | > 100 µM | 3.15 µM | 15 µM | 1.63 µM | 3.35 µM | 3.01 µM | 14.8 µM | 3.03 µM | 16.2 µM | 4.06 µM | 20.7 µM | 3.24 µM | 14.4 µM
CCCCCCCCCc1ccc(OCCOCCOCCOCCOCCOCCOCCOCCOCCO)cc1 | 0.881 µM | 2.48 µM | 0.231 µM | 2.71 µM | 0.665 µM | 3.8 µM | 0.0368 µM | 1.76 µM | 0.452 µM | 5.78 µM | 0.379 µM | 1.25 µM | 0.733 µM | 4.82 µM | 1.03 µM | 3.37 µM | 0.224 µM | 2.75 µM | 0.414 µM | 3.69 µM
O=C(NN1C(=O)CSC1c1cccc(Cl)c1)C(O)c1ccccc1 (stereo not drawn) | 65 µM | > 100 µM | 83.5 µM | > 100 µM | > 100 µM | > 100 µM | 23.1 µM | > 100 µM | 64.5 µM | > 100 µM | 23.1 µM | > 100 µM | 75.5 µM | > 100 µM | 59.3 µM | > 100 µM | 67.7 µM | > 100 µM | 35.9 µM | > 100 µM
COc1ccc2c(c1)C(=O)/C(=C/c1cccc(OCC(=O)Nc3nc(C)c(C)s3)c1)O2 | 0.0115 µM | 0.037 µM | 0.647 µM | 12.9 µM | 1.75 µM | 10.7 µM | 0.104 µM | 0.587 µM | 0.677 µM | 15.3 µM | 1.97 µM | 7.98 µM | 0.0222 µM | 0.0378 µM | 0.0214 µM | 0.0418 µM | 1.99 µM | 4.65 µM | 0.19 µM | 2.41 µM
CC(=O)c1ccc2c(c1)N(CCCN1CCN(CCO)CC1)c1ccccc1S2 | 1.53 µM | 3.51 µM | 3.34 µM | 10.5 µM | 1.55 µM | 3.91 µM | 2.4 µM | 8.75 µM | 4.83 µM | 21 µM | 1.88 µM | 3.83 µM | 1.79 µM | 5.46 µM | 2.09 µM | 5.95 µM | 1.94 µM | 5.2 µM | 3.3 µM | 11.5 µM
CCSc1ccc([C@@H]2[C@@H](O)C(=O)N2c2cc(OC)c(OC)c(OC)c2)cc1 | < 0.011 µM | 65.1 µM | 0.0211 µM | 16.8 µM | < 0.01 µM | 0.829 µM | 0.0279 µM | 12 µM | 0.0226 µM | 53 µM | < 0.01 µM | 20.1 µM | 0.21 µM | 34.2 µM | < 0.01 µM | 52.3 µM | 14.2 µM | 45.8 µM | < 0.0159 µM | 80.6 µM
Clc1ccc(/C=C/c2ccc3ccccc3n2)cc1 | 2.63 µM | > 67.1 µM | 1.06 µM | > 100 µM | 0.306 µM | > 100 µM | 0.482 µM | 18.6 µM | 2.79 µM | > 100 µM | 1.47 µM | > 100 µM | 4.68 µM | > 100 µM | 0.648 µM | > 74.7 µM | 5.16 µM | > 100 µM | 1.75 µM | > 100 µM
COc1cccc(CNc2ncnc3c2ncn3C2OC(CO)C(O)C2O)c1O (stereo not drawn) | 0.174 µM | 9.96 µM | 0.0679 µM | > 43 µM | 0.205 µM | 2.21 µM | 0.319 µM | > 100 µM | 0.559 µM | > 59.6 µM | 0.347 µM | > 31.8 µM | 0.123 µM | > 28.6 µM | 0.0438 µM | 0.36 µM | 0.0549 µM | – | 1.05 µM | > 100 µM
c1ccc(-c2nc3n(c2-c2ccc4c(c2)OCO4)CCC3)nc1 | 6.42 µM | > 25 µM | 6.34 µM | > 25 µM | 5.76 µM | 20.6 µM | 9.88 µM | > 25 µM | 5.2 µM | > 25 µM | 5.31 µM | 16.2 µM | 0.611 µM | 8.58 µM | 2.45 µM | > 17.5 µM | 7.99 µM | > 23.4 µM | 5.88 µM | > 25 µM
